Assay: 13C-octanoic acid breath test of gastric emptying: 13CO2 excretion in exhaled respiratory air measured by IRMS after test meal
Method: The thus formed ^13CO2 is then measured in the exhaled respiratory air by means of IRMS. IRMS (isotope ratio mass spectrography) has in the meantime become the most sensitive and best method for determining ^13CO2 in the exhaled respiratory air.
Therefore, the sampling and optimum calculation take three to four hours. The interval for sampling is optimal at 15 min.
Further, the patient need not sit calmly between the measuring devices for radioactivity. Rather, it is sufficient if they blow samples of their respiratory air into collecting devices every 12 minutes. For example, the so-called vacutainerss are particularly suitable for this purpose. These samples of the exhaled respiratory air may then be measured and evaluated in a central laboratory with a correspondingly sensitive IRMS equipment.

- maximum of 13CO2 excretion (normal gastric emptying (patient No. 1), free 13C-octanoic acid bound to egg yolk, oral test meal, exhaled air, IRMS): > 2.9 h
- maximum of 13CO2 excretion (somewhat faster gastric emptying (patient No. 5)): > 2.9 h
- maximum of 13CO2 excretion (very delayed gastric emptying (patient No. 4)): < 2.5 h
SMILES: CCCCCCC[13C](=O)O [^13C-octanoic acid]
